Measured values: patent publication US9617602B2, “Methods and compositions for determining resistance to androgen receptor therapy” (Aragon Pharmaceuticals, Inc., priority 2012, dated 2017)
Residue numbers refer to the chain shown, from its start.

Tests used:
F876L AR = molecular target: T1, F876L AR (Homo sapiens, UniProt P10275, DEL79-80/DUP473-473/F877L)
T1 sequence (P10275 with tags, fused parts or gaps DEL79-80/DUP473-473/F877L): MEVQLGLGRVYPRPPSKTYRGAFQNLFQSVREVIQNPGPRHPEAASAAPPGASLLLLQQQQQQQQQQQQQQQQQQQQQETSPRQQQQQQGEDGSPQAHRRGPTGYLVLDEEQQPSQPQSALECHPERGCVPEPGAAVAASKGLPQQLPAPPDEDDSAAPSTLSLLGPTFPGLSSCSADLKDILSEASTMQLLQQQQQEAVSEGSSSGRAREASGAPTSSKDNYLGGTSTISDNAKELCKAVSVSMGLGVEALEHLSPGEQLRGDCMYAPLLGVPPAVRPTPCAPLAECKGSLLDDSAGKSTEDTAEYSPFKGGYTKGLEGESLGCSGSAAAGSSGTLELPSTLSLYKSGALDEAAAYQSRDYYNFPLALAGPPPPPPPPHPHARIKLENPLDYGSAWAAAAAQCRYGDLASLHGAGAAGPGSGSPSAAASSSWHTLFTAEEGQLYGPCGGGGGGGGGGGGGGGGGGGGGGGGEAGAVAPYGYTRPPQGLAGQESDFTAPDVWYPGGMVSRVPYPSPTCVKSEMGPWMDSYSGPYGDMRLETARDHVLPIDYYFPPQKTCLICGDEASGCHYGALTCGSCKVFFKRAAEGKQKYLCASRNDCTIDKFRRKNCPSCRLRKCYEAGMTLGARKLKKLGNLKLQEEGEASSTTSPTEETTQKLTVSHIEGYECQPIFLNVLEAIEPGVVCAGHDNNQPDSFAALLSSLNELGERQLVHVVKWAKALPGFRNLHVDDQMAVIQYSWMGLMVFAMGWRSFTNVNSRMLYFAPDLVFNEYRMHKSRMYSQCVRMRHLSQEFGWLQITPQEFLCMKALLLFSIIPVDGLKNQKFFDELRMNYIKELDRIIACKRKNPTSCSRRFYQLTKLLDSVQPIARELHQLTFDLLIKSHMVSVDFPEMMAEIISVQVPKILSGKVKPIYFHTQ
Experimental: (§1) Transcriptional reporter assays were performed by seeding 100 μL of HEPG2 cells at a density of 250,000 cells/mL into 96-well cell culture plates in MEM supplemented with 10% charcoal stripped serum and allowed to attach overnight at 37° C.
(§2) Cells were transiently transfected using Lipofectin® (Life Technologies) according to the manufacturer's protocol.
(§3) Following 48 hour incubation the medium was removed and the cells were lysed in 40 μL of lysis buffer (25 mM Tris Phosphate, 2 mM CDTA, 10% Glycerol, 0.5% Triton X-100, 2 mM DTT).
(§4) The AR transcriptional reporter assays were performed essentially as described above with minor modifications. Triplicate transfections were performed using 50 ng pCDNA3-AR or pCDNA3-AR mutant, 65 ng 4×ARE-Luciferase, 20 ng pRL (Promega), and 25 ng pCMX.

wild-type VP16-AR = wild-type VP16-AR (Homo sapiens, UniProt P10275)
Experimental: (§5) AR point mutations were generated in VP16-AR using the QuickChange II Site-Directed Mutagenesis Kit (Agilent Technologies, Santa Clara, Calif.) according to the manufacturer's protocol.
(§6) Transcription assays were performed essentially as described above. […] Luciferase activity was measured as described above.

wild-type AR = molecular target: T2, wild-type AR (Homo sapiens, UniProt P10275, DEL79-80/DUP473-473)
T2 sequence (P10275 with tags, fused parts or gaps DEL79-80/DUP473-473): T1 sequence (P10275 with tags, fused parts or gaps DEL79-80/DUP473-473/F877L) with L876F
Experimental: as §1, §2, §3, §4

F876L VP16-AR = F876L VP16-AR (Homo sapiens, UniProt P10275, DEL79-80/DUP473-473/F877L)
Experimental: as §5, §6

In the case of `CC(C)(O)C(=O)Nc1ccc([N+](=O)[O-])c(C(F)(F)F)c1` [Hydroxyflutamide, hydroxyflutamide], the “4X ARE Reporter Assay F876L Emax” value (F876L AR) is reported as 0.8 ± 0.2 percent maximal R1881 response, the “AR-VP16 WT Emax” value (wild-type VP16-AR) is reported as 42.28 ± 4.44 percent maximal R1881 response and the “4X ARE Reporter Assay WT Emax” value (wild-type AR) is reported as 28.9 ± 5.0 percent maximal R1881 response. The “AR-VP16 F876L Emax” value (F876L VP16-AR) was 5.36 ± 5.35 percent maximal R1881 response.
